Data reported in patent US20130012483A1, “NOVEL PHARMACEUTICAL COMPOSITION FOR THE TREATMENT OF NEURODEGENERATIVE OR NEUROVASCULAR DISEASES” (priority 2010, published 2013).

System: elderly patients suffering from Alzheimer disease or related disorders (ADRD)
Assay: Before-after clinical study: change in global cognitive performance by Mini-Mental State Examination (MMSE)
Assay type: in vivo, human
Settings: for Change in MMSE score, mean ± SD (MMSE score after treatment − MMSE score before treatment): between-visits change, oral treatment; for MMSE score (/30 points), mean ± SD after treatment: first follow-up visit, oral vitamin D3 800-3500 IU per day and/or memantine 5-20 mg per day, mean time between visits 0.6±0.4 years
Method: Based on a before-after designed study, we compared the change in global cognitive performance using the Mini-Mental State Examination (MMSE) among elderly patients suffering from Alzheimer disease or related disorders (ADRD).
Three different treatments were administered to these patients: • vitamin D3 alone, • memantine alone, • vitamin D3 in combination with memantine.
All patients suffering from ADRD who were prescribed memantine and/or vitamin D3 with no cerebral vasodilatators and no anticholinesterasics (i.e., donepezil, galantamine or rivastigmine) at the University Memory Center of Angers University Hospital, France and who had at least one follow-up visit, were enrolled in this study.
The MMSE score was used to assess global cognitive performance during the study and was completed at baseline (i.e., before the drug prescription) and during the first follow-up visit. MMSE is a well-established measure of cognitive function in elderly people (see for example Folstein M F, Folstein S E, et al., Mini-Mental State: A practical method for grading the cognitive state of patients for the clinician; Journal of Psychiatric Research 1975; 12: 189-198; or Kalafat L, Hugonot-Diener L, Poitrenaud J., Standardisation et étalonnage français du<<Mini Mental State>>version Greco; Neuropsychol Rev 2003; 13: 209-236). It is a brief, practical screening test for cognitive dysfunction composed of five sections (orientation, registration, attention—calculation, recall, and language). […] Scores range from 30 (unimpaired) to 0 (impaired). The change in MMSE score was used to assess the change in cognitive performance after the introduction of the drug(s).
Subjects were prescribed either vitamin D3 alone, memantine alone, or Vitamin D3 in combination with memantine.
Vitamin D3 was administered orally either daily or monthly. Dosage of vitamin D3 ranges between 800 and 3500 IU per day.
Memantine was administered orally every day at once. Dosage ranges from 5 to 20 mg per day.
Age, gender, the MMSE score at baseline assessment as well as the time between two visits expressed in years (corresponding to the duration of treatment) were used as co-variables.
The subjects' baseline characteristics were summarized using means and standard deviations or frequencies and percentages, as appropriate. First, comparisons between subjects separated into three groups corresponding to the three treatments administered (i.e., vitamin D3 alone, memantine alone and Vitamin D3 in combination with memantine) were performed using the Chi-square test or the Kruskal-Wallis test, as appropriate. To address the problem of multiple comparisons, analyses were completed by a post hoc Bonferonni test.
Second, multiple linear regression analyses (i.e., fully adjusted method) were performed to examine the association between the change in MMSE score (dependent variable) and the use of vitamin D3 in combination with memantine (independent variable), after adjustment for clinical characteristics.
Three models were performed: • first, we examined the between-visits change in MMSE score taking as reference group the subjects using vitamin D3 alone; • second, we performed the same analysis taking as reference group the subjects using memantine alone; and • third, taking as reference group the subjects using vitamin D3 or memantine.

Structure (SMILES)	Change in MMSE score, mean ± SD (MMSE score after treatment − MMSE score before treatment)	Change in MMSE score, mean ± SD (MMSE score after treatment − MMSE score before treatment) (listed as memantine)	MMSE score (/30 points), mean ± SD after treatment	points lost in MMSE score on average (between visits, printed as a loss)
CC12CC3CC(C)(C1)CC(N)(C3)C2 [M., 3,5-dimethyltricyclo[3.3.1.1]decylamine]	−0.0 ± 1.8 points	0.0±1.8 points	16.1 ± 5.1 points	
C=C1CC[C@H](O)C/C1=C/C=C1\CCC[C@]2(C)[C@@H]([C@H](C)CCCC(C)C)CC[C@@H]12 [V. D3, cholecalciferol]	−0.6 ± 3.1 points		17.7 ± 6.5 points	0.6±3.1 points
